Experimental data taken from paper PMC10245146, “CNS4 causes subtype‐specific changes in agonist efficacy and reversal potential of permeant cations in NMDA receptors” (Pharmacology Research & Perspectives, 2023).

Tests used:
Type in all cases: cell-based
GluN1/2A receptors = target: T1, GluN1/2A receptors (UniProt P35439+Q12879); test: Whole-cell patch-clamp, HEK293T cells expressing recombinant GluN1/2A; conditions: 100 μM CNS4 applied 4 s before and with 100 μM glutamate + 100 μM glycine; agonist alone −323.5 ± 82 pA; n = 4(3), p = .12
T1 construct: expressed in transfected cells; host or cells: HEK-293T
Method: (§1) Whole‐cell patch‐clamp electrophysiology studies were carried out in HEK‐293T cells expressing recombinant NMDA receptors that lack native functional NMDA receptors.[29], [30], [31] An equal quantity of (1 μg) cDNA for GluN1a, GluN2 subunits were co‐transfected 24‐48 h before patch‐clamp electrophysiology assay. […] Cells were carefully washed before performing experiments and were used for the electrophysiology experiments after 24 to 48 h incubation at 37°C with 5%CO2. The whole‐cell patch‐clamp electrophysiology assay was performed using semi‐automated patch‐clamp equipment, Port‐a‐Patch (Nanion Technologies GmbH). Following are the constituents of various solutions used for patch‐clamp electrophysiology: internal solution ([mM] NaCl 10, EGTA 20, CsF 110, HEPES 10), Mg‐free external (recording) solution ([mM] NaCl 140, KCl 4, CaCl2 2, HEPES 10, D‐GlucoseMonohydrate 5), and Mg‐free seal enhancer solution ([mM] NaCl 80, KCl 3, CaCl2 35, HEPES 10). Nanion NPC chips with […] resistance were used for the HEK‐293T cell recordings.
(§2) FIGURE 1 CNS4 sensitizes ambient concentration of agonists in GluN2 subunit dependent manner. […] Statistical significance was calculated from the Wilcoxon matched‐pairs signed rank test, except the comparison between 1/2A & 1/2AB CNS4 with no agonist data, which was done by unpaired t‐test. […]

GluN1/2B NMDA receptors = target: T2, GluN1/2B NMDA receptors (Rattus norvegicus, UniProt P35439+Q00960); test: TEVC agonist dose-response, Xenopus oocytes expressing 1/2B; conditions: with 30 μM CNS4
T2 construct: SEP (super-ecliptic pHluorin; printed only as 'sep' in the plasmid name); host or cells: Xenopus oocytes (cRNA injection)
Description: NMDA receptor constructs: cDNA encoding the NMDA receptor1a subunit (GluN1a) was obtained from Dr. Nakanishi (Kyoto, Japan). cDNA encoding the GluN2B (pci_sepGluN2B), originally developed in the Malinow lab,[33] was purchased from Addgene (cat# 23998), Cambridge, MA. cDNA encoding the GluN2C and GluN2D were purchased from GenScript, New Jersey, USA. Mutated GluN1, 2A and 2B cDNA constructs capable of assembling as GluN1/2A/2B triheteromeric (1/2AB) receptors[34] were obtained from Dr. Paoletti (Laboratoire de Neurobiologie, CNRS). These constructs have been previously tested for 1/2AB receptor activity of GluN1/2A receptor‐selective potentiators.[35] […]
Electrophysiological responses were measured using a standard two‐microelectrode voltage‐clamp workstation (Warner Instruments model OC‐725C) designed to provide a fast clamp of large cells. […] Response magnitude was determined in Xenopus oocytes expressing different NMDA receptor subunits (GluN1/2A, 1/2B, 1/2C, 1/2D, and 1/2A/2B) by the steady plateau response elicited by bath application of different agonist concentrations. […] Statistical significance was determined at the overall alpha level 0.05, using appropriate statistical methods as described in all figure captions. […]

GluN1/2AB receptors = test: Whole-cell patch-clamp, HEK293T cells expressing recombinant GluN1/2AB; conditions: 100 μM CNS4 applied 4 s before and with 100 μM glutamate + 100 μM glycine; agonist alone −546 ± 32.34 pA; n = 8(4), p = .023
Method: as §1, §2

T2 sequence (Q00960 27-1482, other chains not shown): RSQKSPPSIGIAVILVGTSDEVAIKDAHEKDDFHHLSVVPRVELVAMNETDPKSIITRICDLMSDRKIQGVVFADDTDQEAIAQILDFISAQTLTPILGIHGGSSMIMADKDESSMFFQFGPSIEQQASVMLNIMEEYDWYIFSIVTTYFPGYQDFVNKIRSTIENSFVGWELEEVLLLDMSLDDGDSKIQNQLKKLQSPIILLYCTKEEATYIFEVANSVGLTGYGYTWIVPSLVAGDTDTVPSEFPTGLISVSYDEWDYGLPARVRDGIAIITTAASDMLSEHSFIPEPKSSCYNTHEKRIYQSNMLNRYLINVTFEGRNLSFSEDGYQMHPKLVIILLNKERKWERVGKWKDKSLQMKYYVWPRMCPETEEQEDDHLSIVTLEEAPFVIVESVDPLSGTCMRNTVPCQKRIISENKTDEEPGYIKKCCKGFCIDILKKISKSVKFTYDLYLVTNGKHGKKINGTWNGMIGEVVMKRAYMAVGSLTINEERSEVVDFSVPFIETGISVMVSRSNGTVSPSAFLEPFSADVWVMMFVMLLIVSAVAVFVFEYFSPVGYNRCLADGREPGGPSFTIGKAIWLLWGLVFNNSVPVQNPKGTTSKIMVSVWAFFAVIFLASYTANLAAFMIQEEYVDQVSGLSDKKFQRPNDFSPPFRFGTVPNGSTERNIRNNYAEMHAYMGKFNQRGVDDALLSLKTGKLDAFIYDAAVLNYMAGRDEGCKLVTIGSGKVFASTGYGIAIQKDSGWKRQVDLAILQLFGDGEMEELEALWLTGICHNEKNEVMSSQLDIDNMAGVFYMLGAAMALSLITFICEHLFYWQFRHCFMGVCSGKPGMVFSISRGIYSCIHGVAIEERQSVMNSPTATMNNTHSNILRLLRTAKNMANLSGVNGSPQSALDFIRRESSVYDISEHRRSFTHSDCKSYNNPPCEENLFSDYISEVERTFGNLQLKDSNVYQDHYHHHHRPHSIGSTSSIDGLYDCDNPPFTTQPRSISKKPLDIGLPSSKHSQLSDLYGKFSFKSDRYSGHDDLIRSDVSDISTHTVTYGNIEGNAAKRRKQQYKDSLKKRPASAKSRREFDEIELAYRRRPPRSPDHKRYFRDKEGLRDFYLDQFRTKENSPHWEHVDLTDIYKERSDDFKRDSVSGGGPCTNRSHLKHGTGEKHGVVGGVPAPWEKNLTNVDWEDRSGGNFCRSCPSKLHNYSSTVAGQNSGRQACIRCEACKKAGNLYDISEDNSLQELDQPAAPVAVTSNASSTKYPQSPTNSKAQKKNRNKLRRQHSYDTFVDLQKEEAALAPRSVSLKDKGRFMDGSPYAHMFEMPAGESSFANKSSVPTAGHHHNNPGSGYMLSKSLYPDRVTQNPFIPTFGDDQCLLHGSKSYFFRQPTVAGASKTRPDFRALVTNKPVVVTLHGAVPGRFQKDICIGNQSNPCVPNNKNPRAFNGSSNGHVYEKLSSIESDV
T1 sequence (Q12879 23-1464, other chains not shown): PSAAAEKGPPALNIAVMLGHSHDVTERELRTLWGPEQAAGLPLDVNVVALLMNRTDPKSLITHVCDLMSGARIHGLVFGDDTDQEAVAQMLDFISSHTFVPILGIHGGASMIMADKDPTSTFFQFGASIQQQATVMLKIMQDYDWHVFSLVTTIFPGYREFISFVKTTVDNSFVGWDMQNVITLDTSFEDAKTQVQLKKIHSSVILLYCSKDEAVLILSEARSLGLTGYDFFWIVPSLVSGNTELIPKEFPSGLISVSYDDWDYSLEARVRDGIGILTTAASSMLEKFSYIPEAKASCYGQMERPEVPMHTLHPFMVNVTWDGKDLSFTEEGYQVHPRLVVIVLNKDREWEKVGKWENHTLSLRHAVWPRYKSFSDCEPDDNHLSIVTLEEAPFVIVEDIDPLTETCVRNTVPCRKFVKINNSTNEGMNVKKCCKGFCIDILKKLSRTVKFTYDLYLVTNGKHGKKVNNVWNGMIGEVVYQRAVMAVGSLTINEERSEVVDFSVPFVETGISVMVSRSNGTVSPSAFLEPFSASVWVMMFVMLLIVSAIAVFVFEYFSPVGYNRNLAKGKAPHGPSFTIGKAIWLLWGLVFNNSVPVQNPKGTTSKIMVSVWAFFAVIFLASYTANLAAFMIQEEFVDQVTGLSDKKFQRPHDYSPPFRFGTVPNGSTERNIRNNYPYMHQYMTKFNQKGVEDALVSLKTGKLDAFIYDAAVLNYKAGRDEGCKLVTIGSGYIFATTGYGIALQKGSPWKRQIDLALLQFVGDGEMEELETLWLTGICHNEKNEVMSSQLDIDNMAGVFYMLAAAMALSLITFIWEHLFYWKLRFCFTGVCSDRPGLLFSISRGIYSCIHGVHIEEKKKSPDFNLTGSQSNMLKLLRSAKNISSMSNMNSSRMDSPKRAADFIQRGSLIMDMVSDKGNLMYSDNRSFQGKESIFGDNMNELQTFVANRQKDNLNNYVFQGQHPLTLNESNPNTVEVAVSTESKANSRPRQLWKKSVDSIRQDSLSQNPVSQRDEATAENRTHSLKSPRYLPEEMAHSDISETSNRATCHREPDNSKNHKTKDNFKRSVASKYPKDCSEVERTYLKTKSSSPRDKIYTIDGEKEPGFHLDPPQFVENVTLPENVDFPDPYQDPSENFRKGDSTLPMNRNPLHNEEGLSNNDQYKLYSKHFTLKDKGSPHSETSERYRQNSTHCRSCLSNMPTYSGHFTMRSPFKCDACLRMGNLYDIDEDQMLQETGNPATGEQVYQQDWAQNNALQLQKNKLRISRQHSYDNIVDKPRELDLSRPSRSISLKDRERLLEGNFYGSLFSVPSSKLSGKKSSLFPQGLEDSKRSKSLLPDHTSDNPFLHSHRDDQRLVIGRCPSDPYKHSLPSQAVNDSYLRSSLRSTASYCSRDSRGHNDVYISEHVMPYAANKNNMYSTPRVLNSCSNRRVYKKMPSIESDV

O=C(NC(=S)N1CCCCC1c1cccnc1)c1ccc(F)cc1 (stereo not shown) [CNS4]
Peak current amplitude (GluN1/2A receptors): −469.3 ± 152 pA
Glycine efficacy: relative fold change in current at highest glycine concentration (GluN1/2B NMDA receptors; 100 μM glutamate constant, relative to 1 μM glycine, p = .0303): 0.88 ± 0.07 fold
Glutamate efficacy: relative fold change in current at highest glutamate concentration (GluN1/2B NMDA receptors; 100 μM glycine constant, relative to 1 μM glutamate, p = .5104): 4.27 ± 0.82 fold
Peak current amplitude (GluN1/2AB receptors): –380.7 ± 36.61 pA
